Values joined by “and” are separate entries in the source; they are usually repeats but may differ in a detail not shown here. Equal entries are not always repeated. “Also recorded” adds a separate entry of the source. No end group written: not given here.
What was measured:
[1] = Spleen CNR in contrast-enhanced MRI; format: in vivo, nu/nu mice; details: BxPC3-GFP-Luc intrapancreatic model (n = 3), p > 0.05
Protocol: (§1) Flank tumor-bearing mice were anesthetized and a tail vein catheter inserted. MR image acquisition was performed on a 7T Biospin (Bruker, Billerica, MA) preclinical small animal scanner with a volume radiofrequency coil. Axial images were obtained using a multi-spin multi-echo (MSME) MRI sequence (500 ms TR, 8.1 ms TE, 90° FA, 4.50 cm × 4.50 cm FOV, 1.50 mm slice thickness, 16 slices, 2 averages, 200 × 200 matrix, 0.0225 × 0.0225 cm/pixel resolution). Contrast agents were injected at a dose of 0.1 mmol/kg (100 μL) via the tail vein catheter, followed by a saline flush. Images of the tumors were acquired before contrast and at various time points after contrast administration. Gd(HP-DO3A) was used as a control.
(§2) Mice bearing intrapancreatic tumors were anesthetized and a tail vein catheter was inserted. Image acquisition was performed on a MR Solutions 3T MRS 3000 scanner with a mouse radiofrequency coil. […]
(§3) Image files were exported and analyzed in Horus software. […] The contrast-to-noise ratio of the tumor (CNR) was calculated using the following equation, where σnoise is the standard deviation of intensities from an ROI drawn outside of the mouse body: […]

[2] = test system: BxPC3-GFP-Luc intrapancreatic tumor xenografts; assay: MRMI of BxPC3-GFP-Luc intrapancreatic tumor xenografts (3T); format: in vivo, human cells in female nu/nu mice
Protocol: (§4) For flank xenograft models, 4 × 10^6 Capan-1 cells suspended in 100 μL of a 6 mg/mL Matrigel (Corning, Corning, NY) solution was injected subcutaneously into the flank of 8-week-old female nu/nu mice. The tumor bearing mice were imaged after tumor volumes exceeded 300 mm^3. For orthotopic intrapancreatic models, the pancreas of 4-week-old female nu/nu mice were surgically exposed via a ~10 mm incision in the left ventral abdomen and the application of gentle pressure to express the spleen and associated pancreatic tissue. 1 × 10^6 BxPC3-GFP-Luc or PANC-1-GFP-Luc cells suspended in 100 μL of a Matrigel solution (6 mg/mL) was injected into the pancreatic tissue using an insulin syringe with a 31G needle. Any leakage of cell suspension was lavaged with DPBS twice to prevent intraabdominal seeding PaCa cells. The peritoneal fascia was closed with absorbable stitches, and the dermis closed with stainless steel wound clips. Prior to imaging, growth of tumor was verified by bioluminescence imaging with intraperitoneal injection of d-luciferin on IVIS Spectrum system (Perkin Elmer, Waltham, MA).
(§5) Mice bearing intrapancreatic tumors were anesthetized and a tail vein catheter was inserted. Image acquisition was performed on a MR Solutions 3T MRS 3000 scanner with a mouse radiofrequency coil. Axial images were obtained using a Fast Spin Echo (FSE) MRI sequence (305 ms TR, 11 ms TE, 90° FA, 4 cm × 4 cm FOV, 1 mm slice thickness, 10 slices, echo train length = 4, echo spacing = 11 ms, 4 averages, 256 × 256 matrix, 0.0156 × […] cm/pixel resolution) with respiratory gating. Images were acquired before contrast and at different time points after contrast injection at a dose of 0.1 mmol/kg (100 μL). For competitive binding experiments, a 5:1 molar ratio of free ZD2 peptide to MT218 was injected in mice bearing intrapancreatic BxPC3 tumor xenografts (n = 3) at a dose of 0.1 mmol MT218/kg (100 μL). Images obtained on the MR Solutions 3T scanner were normalized using the Surscalereader.exe (MR Solutions, Guildford, UK) program supplied.
(§6) Image files were exported and analyzed in Horus software. ROIs were drawn in the tumor, liver, kidney, and muscle. Muscle ROIs were taken from the muscle, with other structures (liver, kidney, tumor) identified after comparison with published images and comparison with anatomical landmarks or bioluminescent imaging. Pancreatic lesions were localized using the liver, kidney, and spleen as anatomical landmarks. […] Size of ROIs drawn for image analysis are summarized in Supplementary Table 1. The contrast-to-noise ratio of the tumor (CNR) was calculated using the following equation, where σnoise is the standard deviation of intensities from an ROI drawn outside of the mouse body:
(§7) CNR=Mean IntensityTumor-Mean IntensityMuscle/σnoise.
(§8) Image subtraction was performed on images adjusted to the same window and level in FIJI open-source software.
(§9) Image contrast was reported as fold enhancement of contrast to noise ratio of post-contrast images over pre-contrast images using Fold Enhancement = CNRpost/CNRpre. Statistical analysis of CNR was performed in Minitab Express (Minitab Inc., State College, PA). One-way ANOVA with Fisher Individual Tests for Differences of Means post-hoc testing was performed to determine statistical significance between >2 means (p < 0.05). Student's T test was used to determine statistical significance between 2 means (p < 0.05).

[3] = test system: aggressive breast and prostate cancers; details: cited from earlier work
Description: (§10) ZD2 targeted MRI contrast agents have been developed and tested for MRMI of EDB-FN in aggressive breast cancer and prostate cancer models ([15], [16], [20]). The targeted contrast agent ZD2-N3-Gd(HP-DO3A) (MT218) was developed by conjugating ZD2 peptide to a clinical macrocyclic contrast agent Gd(HP-DO3A) ([16], [20]). […] The ...

[4] = cited from earlier work
Description: as §10

[5] = test system: PANC-1-GFP-Luc intrapancreatic tumor xenografts; assay: MRMI of PANC-1-GFP-Luc intrapancreatic tumor xenografts (3T); format: in vivo, human cells in female nu/nu mice
Protocol: as §4, §5, §6, §7, §8, §9

[6] = Kidney CNR in contrast-enhanced MRI; format: in vivo, nu/nu mice; details: all tested mice, p > 0.05; BxPC3-GFP-Luc (n = 3) and PANC-1-GFP-Luc (n = 6) models
Protocol: as §1, §2, §3

[7] = T1 and T2 relaxivity measurement at 3T; format: physicochemical
Protocol: The T1 and T2 values of MT218 and Gd(HP-DO3A) solutions were determined using a 3T MRS 3000 scanner (MR Solutions, Guildford, UK). Solutions of MT218 were prepared at concentrations of 0, 0.25, 0.5, 1, and 2 mM in DPBS buffer (Gibco, Gaithersburg, MD). T1 values were measured using an inversion recovery-fast low angle shot (IR-FLASH) sequence (τ = 10 ms, TE = 4 ms, FA = 8°, echoes/frames = 128, FOV = 40 mm × 40 mm, slice thickness = 2 mm, number of averages = 1, time delay = 4,000 ms, sample period = 200, matrix = 256 × 128). T2 values were obtained using a multi-echo multi-slice (MEMS) sequence (TE = 15 ms, […], echoes = 10, FOV: 40 mm × 40 mm, slice thickness = 1 mm, number of averages = 1, matrix = 256 × 192). The r1 and r2 relaxivities were calculated from the slopes of 1/T1 and 1/T2 vs. Gd concentration plots, respectively.

[8] = 0.1 mmol/kg, 10 min post-injection, n = 3
[9] = 0.1 mmol/kg, 10 min post-injection, n = 6

ZD2-N3-Gd(HP-DO3A) (TVRTSAD; also: conjugated via N3 to Gd(HP-DO3A) contrast agent, end not given here) [MT218, small molecular conjugate of ZD2 peptide to a macrocyclic clinical MRI contrast agent Gd(HP-DO3A)]
spleen CNR, MT218 vs Gd(HP-DO3A) [1]: No significant (n.s, p>0.05) difference in spleen CNR | tumor CNR increase (post/pre) ([2]; 0.1 mmol/kg, 10 min post-injection (maximum for MT218), n = 3): 5.3 fold | tumor contrast enhancement [2, 8]: strong contrast enhancement | tumor enhancement, subtraction images [2, 8]: strong enhancement and clear delineation | tumor contrast enhancement ([2]; 0.1 mmol/kg, 20 min post-injection, n = 3): decreased | tumor contrast enhancement ([2]; 0.1 mmol/kg, 30 min post-injection, n = 3): returned to background levels | MT218 CNR relative to control ([2]; BxPC3-GFP-Luc intrapancreatic, control Gd(HP-DO3A), p < 0.05): 212% | CNR relative to clinical agent ([2]; BxPC3-GFP-Luc intrapancreatic, vs Gd(HP-DO3A), p < 0.05): 2.1 times | CNR increase ([2]; MT218 0.1 mmol/kg co-injected with 5-fold excess free ZD2 peptide, n = 3): approximately 2.5 fold | contrast enhancement, competitive binding experiment ([2]; MT218 0.1 mmol/kg co-injected with 5-fold excess free ZD2 peptide, vs MT218 alone, n = 3): significant reduction of contrast enhancement | CNR with free ZD2 peptide compared with MT218 alone ([2]; MT218 co-injected with 5-fold free ZD2 peptide, n = 3, p < 0.05): significant decrease in tumor CNR; also recorded: significantly lower | size of smallest tumor detected / better visualized ([2]; smallest average size / area of tumor nodules, cf. BxPC3 + MT218 ROI in Supplementary Table 1): 6.1 mm^2 and 6.13 mm^2 | contrast enhancement [3]: superior contrast enhancement | T1 relaxivity compared with Gd(HP-DO3A), in words [4]: higher T1 relaxivity than Gd(HP-DO3A) | intratumoral CNR increase (post/pre) [5, 9]: approximately 3.9 fold | tumor contrast enhancement [5, 9]: substantial contrast enhancement | tumor signal enhancement, subtraction images [5, 9]: substantial signal enhancement | MT218 CNR as percent of Gd(HP-DO3A) control ([5]; PANC-1-GFP-Luc intrapancreatic, control Gd(HP-DO3A), p < 0.05): 164% | CNR relative to clinical agent ([5]; PANC-1-GFP-Luc intrapancreatic, vs Gd(HP-DO3A), p < 0.05): 1.6 times | kidney CNR, MT218 vs Gd(HP-DO3A) [6]: No significant (n.s, p>0.05) difference in kidney CNR | T1 relaxivity (r1) ([7]; 0-2 mM MT218 in DPBS buffer, IR-FLASH): 6.07 ± 1.13 s⁻¹ mM⁻¹ | T2 relaxivity (r2) ([7]; 0-2 mM MT218 in DPBS buffer, MEMS): 8.20 ± 0.18 s⁻¹ mM⁻¹ | T1 relaxivity relative to Gd(HP-DO3A) ([7]; targeted agent vs corresponding clinical agent): ~2 fold

— paper PMC7661967, “Magnetic Resonance Molecular Imaging of Extradomain B Fibronectin Improves Imaging of Pancreatic Cancer Tumor Xenografts” (Frontiers in Oncology, 2020)
